Read-outs that look alike come from different tables or passages of the source.

The record followed here is patent US9884823B2, “Oxime ether acetate compound, preparation method therefor and weeding application thereof” (ZHEJIANG UNIVERSITY OF TECHNOLOGY, priority 2014, dated 2018).

The test system of one experiment is Barnyardgrass. As to the kind of experiment: Culture dish method (general screening). In kind it is in vivo, barnyard grass. To be noted: 100 mg/L, 7 days.
The next experiment has as its system Rape. As to the kind of experiment: Culture dish method (general screening). In kind it is in vivo. To be noted: 100 mg/L, 7 days.
The test system of a further experiment is Wheat. As to the kind of experiment: Culture dish method (general screening). The settings on record: 100 mg/L, 7 days. In kind it is in vivo.
The next experiment relates to Radish. As to the kind of experiment: Culture dish method (general screening). Format: in vivo. The settings on record: 100 mg/L, 7 days.
A further experiment concerns Chinese sorghum. As to the kind of experiment: Culture dish method (general screening). Format: in vivo. The settings on record: 100 mg/L, 7 days.
The test system of another experiment is Cucumber. As to the kind of experiment: Culture dish method (general screening). In kind it is in vivo. The settings on record: 100 mg/L, 7 days.
A further experiment has as its system Dog point. As to the kind of experiment: Potted plants live body test. Format: in vivo. To be noted: 150 g a.i./ha, 30 days, Table 9. The text has this: (§1) The raw drug which was selected from the compounds in table 1 was weighed using an analytical balance (0.0001 g), and dissolved in DMF containing 1 wt % Tween-80 emulsifier to prepare a mother liquor of raw drug with a mass concentration of 1.0˜5.0%, and then diluted with distilled water, to prepare preparations at desired concentrations according to the ratio of ingredients in Examples 8, 9 and 10.
(§2) The test targets were mustard, small quinoa, Abutilon, amaranthus retroflexus, Eclipta prostrata, crabgrass, dog point. A pot with a diameter of 7.5 cm was used, filled with composite soil (garden soil:nursery matrix, 1:2, v/v) to ¾ of the pot, then the above […] kinds of weeds targets were directly seeded (germination rate ≧85%), covered with soil at a thickness of 0.2 cm. When the weeds grew to 3-leaf stage, pre-emergence soil treatment for weeds planting, and then spraying was performed.

For the next experiment, the system named is Eclipta prostrata. As to the kind of experiment: Potted plants live body test. Format: in vivo. The settings on record: 150 g a.i./ha, 30 days, Table 9.
Text: as §1, §2

In the next experiment the test system is Abutilon. As to the kind of experiment: Potted plants live body test. Format: in vivo. To be noted: 150 g a.i./ha, 30 days, Table 9.
Text: as §1, §2

The test system of another experiment is Crabgrass. As to the kind of experiment: Potted plants live body test. Format: in vivo. To be noted: 150 g a.i./ha, 30 days, Table 9.
Text: as §1, §2

For a further experiment, the system named is amaranthus retroflexus. As to the kind of experiment: Potted plants live body test. Format: in vivo. To be noted: 150 g a.i./ha, 30 days, Table 9.
Text: as §1, §2

For another experiment, the system named is Mustard. The settings on record: 150 g a.i./ha, 30 days, Table 9.
Experiment [1] relates to broadleaf weeds such as mustard, small quinoa, Abutilon, Amaranthus retroflexus and Eclipta prostrate. To be noted: 150 g a.i./ha.
Text: as §1, §2

Experiment [2] relates to grass weeds such as crabgrass, barnyard grass, dog point. To be noted: 150 g a.i./ha.
Text: as §1, §2

In another experiment the test system is Small quinoa. The settings on record: 150 g a.i./ha, 30 days, Table 9.
Text: as §1, §2

Where [3] appears, read: 30 days after administration, Table 9 summary.

Text for Barnyardgrass: (§3) Culture dish method (general screening): The test targets were radish, cucumber, rape, wheat, sorghum and barnyard grass; the seeds of wheat, sorghum and radish were germinated in advance, and the uniform emerge-germinating seeds were used in the test.
Text for Chinese sorghum: as §3
Text for Cucumber: as §3
Text for Radish: as §3
Text for Rape: as §3
Text for Wheat: as §3

With `CON=C(C(=O)OC)c1ccccc1COc1ccc(-c2ccccn2)cc1` [Compound 7], in the experiment on Barnyardgrass, the “inhibition rate, Barnyardgrass Root” value is 50% and the “inhibition rate, Barnyardgrass Stem” value is listed as 20%. Besides, in the experiment with Rape, the “inhibition rate, Rape Root” value is listed as 60% and the “inhibition rate, Rape Stem” value came to 30%. Further, in the experiment with Wheat, the “inhibition rate, Wheat Root” value is on record as 20% and the “inhibition rate, Wheat Stem” value stood at 0%. In addition, in the experiment with Radish, the “inhibition rate, Radish Root” value stood at 20% and the “inhibition rate, Radish Stem” value is reported as 0%. For the same compound, in the experiment on Chinese sorghum, the “inhibition rate, Chinese sorghum Root” value came out at 0% and the “inhibition rate, Chinese sorghum Stem” value is 0%. Moreover, in the experiment on Cucumber, the “inhibition rate, Cucumber Root” value came out at 30% and the “inhibition rate, Cucumber Stem” value was 0%.

`CON=C(C(=O)OC)c1ccccc1COc1cccc(-c2ccnc(Cl)c2)c1` [Compound 67]: in the experiment on Barnyardgrass, the “inhibition rate, Barnyardgrass Root” value amounted to 50% and the “inhibition rate, Barnyardgrass Stem” value came out at 0%. Moreover, in the experiment on Rape, the “inhibition rate, Rape Root” value came out at 50% and the “inhibition rate, Rape Stem” value is recorded as 30%. For the same compound, in the experiment on Wheat, the “inhibition rate, Wheat Root” value was found to be 30% and the “inhibition rate, Wheat Stem” value is 0%. In the experiment with Radish, the “inhibition rate, Radish Root” value amounted to 50% and the “inhibition rate, Radish Stem” value came out at 50%. In the experiment with Chinese sorghum, the “inhibition rate, Chinese sorghum Root” value is on record as 50% and the “inhibition rate, Chinese sorghum Stem” value amounted to 50%. In addition, in the experiment on Cucumber, the “inhibition rate, Cucumber Root” value stood at 50% and the “inhibition rate, Cucumber Stem” value was 0%.

`CON=C(C(=O)OC)c1ccccc1COc1cccc(-c2cccc(C)n2)c1` [Compound 85]: the “efficiency, Dog point” value in the experiment on Dog point (Postemergence spraying) and in the experiment with Dog point (Pre-emergence soil treatment) was 0% in each case. The “efficiency, Eclipta prostrata” value with Eclipta prostrata (Postemergence spraying) is reported as 50%; in the experiment on Eclipta prostrata (Pre-emergence soil treatment), 0%. The “efficiency, Abutilon” value turned out to be 50% in the experiment on Abutilon (Postemergence spraying) and 20% with Abutilon (Pre-emergence soil treatment). The “efficiency, Crabgrass” value in the experiment on Crabgrass (Postemergence spraying) and in the experiment with Crabgrass (Pre-emergence soil treatment) was 0% in each case. Further, the “efficiency, amaranthus retroflexus” value in the experiment on amaranthus retroflexus (Postemergence spraying) and in the experiment with amaranthus retroflexus (Pre-emergence soil treatment) was 0% in each case. Also, the “inhibition rate, Barnyardgrass Root” value with Barnyardgrass was 80%. Besides, the “inhibition rate, Barnyardgrass Stem” value in the experiment on Barnyardgrass stood at 0%. In addition, the “inhibition rate, Rape Root” value with Rape is 80%. Besides, the “inhibition rate, Rape Stem” value in the experiment on Rape worked out at 50%. Besides, the “inhibition rate, Wheat Root” value in the experiment on Wheat is on record as 60%. In addition, the “inhibition rate, Wheat Stem” value with Wheat turned out to be 20%. Further, the “inhibition rate, Radish Root” value in the experiment with Radish is listed as 50%. Also, the “inhibition rate, Radish Stem” value in the experiment on Radish came out at 50%. Also, the “efficiency, Mustard” value in the experiment with Mustard (Postemergence spraying) was 30%; with Mustard (Pre-emergence soil treatment), 20%. Further, the “inhibition rate, Chinese sorghum Root” value with Chinese sorghum is on record as 80%. Also, the “inhibition rate, Chinese sorghum Stem” value in the experiment on Chinese sorghum is recorded as 30%. Moreover, the “herbicidal activity on broadleaf weeds targets” value in experiment [1] (setting [3]) is “herbicidal activity”. The “activity on the growth of broadleaf weeds” value in experiment [1] (postemergence spraying, 30 days, vs clear water control) was “inhibitory activity”. Further, the “activity for grass targets such as crabgrass and dog point” value in experiment [2] (setting [3]) is “poor activity”. In addition, the “activity on grass weeds such as crabgrass, dog point” value in [2] (postemergence spraying, 30 days) is recorded as “almost have no activity”. In addition, the “efficiency, Small quinoa” value with Small quinoa (Postemergence spraying) and in the experiment with Small quinoa (Pre-emergence soil treatment) was 0% each time. The “inhibition rate, Cucumber Root” value in the experiment on Cucumber is recorded as 80%. Besides, in the experiment with Cucumber, the “inhibition rate, Cucumber Stem” value amounted to 30%.

For `CON=C(C(=O)OC)c1ccccc1COc1cccc(-c2ncc(Br)cc2[N+](=O)[O-])c1` [Compound 104], in the experiment with Barnyardgrass, the “inhibition rate, Barnyardgrass Root” value is 0% and the “inhibition rate, Barnyardgrass Stem” value came out at 0%. In the experiment with Rape, the “inhibition rate, Rape Root” value is 50% and the “inhibition rate, Rape Stem” value turned out to be 0%. Besides, in the experiment with Wheat, the “inhibition rate, Wheat Root” value is 0% and the “inhibition rate, Wheat Stem” value stood at 0%. In the experiment with Radish, the “inhibition rate, Radish Root” value is on record as 0% and the “inhibition rate, Radish Stem” value is recorded as 0%. Further, in the experiment with Chinese sorghum, the “inhibition rate, Chinese sorghum Root” value is listed as 0% and the “inhibition rate, Chinese sorghum Stem” value is 0%. Further, in the experiment on Cucumber, the “inhibition rate, Cucumber Root” value came out at 20% and the “inhibition rate, Cucumber Stem” value is reported as 0%.

Turning to `CON=C(C(=O)OC)c1ccccc1COc1cccc(-c2c(Cl)cncc2Cl)c1` [Compound 110], in the experiment with Barnyardgrass, the “inhibition rate, Barnyardgrass Root” value came out at 0% and the “inhibition rate, Barnyardgrass Stem” value is on record as 0%. In addition, in the experiment with Rape, the “inhibition rate, Rape Root” value was determined as 20% and the “inhibition rate, Rape Stem” value was 0%. Also, in the experiment on Wheat, the “inhibition rate, Wheat Root” value is on record as 0% and the “inhibition rate, Wheat Stem” value is 0%. Also, in the experiment on Radish, the “inhibition rate, Radish Root” value is 0% and the “inhibition rate, Radish Stem” value is on record as 0%. In addition, in the experiment on Chinese sorghum, the “inhibition rate, Chinese sorghum Root” value was 0% and the “inhibition rate, Chinese sorghum Stem” value was determined as 0%. Moreover, in the experiment with Cucumber, the “inhibition rate, Cucumber Root” value amounted to 20% and the “inhibition rate, Cucumber Stem” value turned out to be 0%.

With `CON=C(C(=O)OC)c1ccccc1COc1ccc(-c2ccc(C(F)(F)F)cn2)cc1` [Compound 32], in the experiment with Barnyardgrass, the “inhibition rate, Barnyardgrass Root” value is listed as 0% and the “inhibition rate, Barnyardgrass Stem” value turned out to be 0%. For the same compound, in the experiment on Rape, the “inhibition rate, Rape Root” value stood at 80% and the “inhibition rate, Rape Stem” value is 80%. Besides, in the experiment with Wheat, the “inhibition rate, Wheat Root” value amounted to 0% and the “inhibition rate, Wheat Stem” value was determined as 0%. Also, in the experiment on Radish, the “inhibition rate, Radish Root” value is 80% and the “inhibition rate, Radish Stem” value was found to be 50%. Also, in the experiment with Chinese sorghum, the “inhibition rate, Chinese sorghum Root” value is on record as 0% and the “inhibition rate, Chinese sorghum Stem” value was found to be 0%. Also, in the experiment on Cucumber, the “inhibition rate, Cucumber Root” value was determined as 0% and the “inhibition rate, Cucumber Stem” value is 0%.

Turning to `CON=C(C(=O)OC)c1ccccc1COc1cccc(-c2ccccn2)c1` [Compound 4], in the experiment with Barnyardgrass, the “inhibition rate, Barnyardgrass Root” value is reported as 30% and the “inhibition rate, Barnyardgrass Stem” value turned out to be 30%. Further, in the experiment on Rape, the “inhibition rate, Rape Root” value was found to be 30% and the “inhibition rate, Rape Stem” value is given as 0%. In the experiment with Wheat, the “inhibition rate, Wheat Root” value came to 0% and the “inhibition rate, Wheat Stem” value amounted to 0%. In the experiment on Radish, the “inhibition rate, Radish Root” value came out at 50% and the “inhibition rate, Radish Stem” value is recorded as 30%. Also, in the experiment with Chinese sorghum, the “inhibition rate, Chinese sorghum Root” value stood at 0% and the “inhibition rate, Chinese sorghum Stem” value is 0%. For the same compound, in the experiment on Cucumber, the “inhibition rate, Cucumber Root” value came to 30% and the “inhibition rate, Cucumber Stem” value is 0%.

Take `CON=C(C(=O)OC)c1ccccc1COc1ccc(-c2ccnc(Cl)c2)cc1` [Compound 75]: in the experiment with Barnyardgrass, the “inhibition rate, Barnyardgrass Root” value stood at 30% and the “inhibition rate, Barnyardgrass Stem” value turned out to be 30%. In addition, in the experiment with Rape, the “inhibition rate, Rape Root” value turned out to be 0% and the “inhibition rate, Rape Stem” value stood at 0%. In the experiment with Wheat, the “inhibition rate, Wheat Root” value was determined as 0% and the “inhibition rate, Wheat Stem” value was determined as 0%. Moreover, in the experiment with Radish, the “inhibition rate, Radish Root” value is 0% and the “inhibition rate, Radish Stem” value is recorded as 0%. For the same compound, in the experiment with Chinese sorghum, the “inhibition rate, Chinese sorghum Root” value worked out at 0% and the “inhibition rate, Chinese sorghum Stem” value worked out at 0%. In addition, in the experiment on Cucumber, the “inhibition rate, Cucumber Root” value was found to be 30% and the “inhibition rate, Cucumber Stem” value turned out to be 0%.

Take `CON=C(C(=O)OC)c1ccccc1COc1cccc(-c2cc(C)ccn2)c1` [Compound 84]: in the experiment with Barnyardgrass, the “inhibition rate, Barnyardgrass Root” value is 80% and the “inhibition rate, Barnyardgrass Stem” value is 0%. Moreover, in the experiment on Rape, the “inhibition rate, Rape Root” value is listed as 50% and the “inhibition rate, Rape Stem” value is recorded as 0%. In the experiment on Wheat, the “inhibition rate, Wheat Root” value is recorded as 0% and the “inhibition rate, Wheat Stem” value came to 0%. For the same compound, in the experiment with Radish, the “inhibition rate, Radish Root” value was found to be 0% and the “inhibition rate, Radish Stem” value worked out at 0%. In the experiment on Chinese sorghum, the “inhibition rate, Chinese sorghum Root” value came to 0% and the “inhibition rate, Chinese sorghum Stem” value came out at 0%. In the experiment on Cucumber, the “inhibition rate, Cucumber Root” value was 30% and the “inhibition rate, Cucumber Stem” value stood at 0%.
